Tests used:
Assay type in all cases: cell-based
Set-up in all cases: expressed in transfected cells; host or cells: HEK293 cells, transient PEI transfection
AT1R [1] = target: T1, AT1R (Homo sapiens, UniProt P30556); test: PKC BRET sensor in HEK293 cells expressing AT1R; conditions: for Emax PKC (% AngII): PKC BRET sensor, response at 10 μM, normalised to AngII; for EC50: PKC-c1b BRET sensor, read 10 min after ligand, mean ± SEM of at least three to five independent experiments, SEM
T1 sequence (P30556 1-359): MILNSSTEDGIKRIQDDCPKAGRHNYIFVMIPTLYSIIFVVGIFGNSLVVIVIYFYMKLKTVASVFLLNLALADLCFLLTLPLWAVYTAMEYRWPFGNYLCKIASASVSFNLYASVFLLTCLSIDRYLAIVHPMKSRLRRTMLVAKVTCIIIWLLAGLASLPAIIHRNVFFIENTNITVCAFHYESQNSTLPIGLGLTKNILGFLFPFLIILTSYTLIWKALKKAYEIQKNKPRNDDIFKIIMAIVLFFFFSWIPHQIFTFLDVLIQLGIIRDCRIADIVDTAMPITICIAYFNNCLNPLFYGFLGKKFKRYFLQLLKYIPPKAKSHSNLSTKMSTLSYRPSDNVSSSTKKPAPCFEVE
Text: (§1) We utilized a clonal cell line HEK293, referred to hereafter as HEK293 cells, which has been previously described.[7],[8] As a gracious gift from A. Inoue (Tohoku University, Sendai, Miyagi, Japan), CRISPR Gαq/11 and Gα12/13 knockout cell lines (ΔGq/11 and ΔG12/13, respectively), were derived as previously explained.[48] In brief, a CRISPR-Cas9 system was used to target either GNAQ and GNA11 or GNA12 and GNA13 genes in HEK293T cells simultaneously to generate the Gαq/11 and Gα12/13 knockout cell lines. For the production of adenovirus, we utilized HEK293A cells. All cells were grown in DMEM supplemented with 10% FBS and Penicillin-Streptomycin-L-Glutamine (10000 IU penicillin, 10000 µg/mL Streptomycin, 200 mM L-Glutamine) at 37°C in T175 flasks under a 5% CO2 humidified chamber. Periodic testing was carried out for mycoplasma contamination (ABM™, Mycoplasma PCR Detection kit). For all biosensors used, cells underwent transfection with the PEI reagent, employing a PEI:DNA ratio of 3:1. For the Gαq biosensor, HEK293 cells were transfected with the plasmids coding for Gαq-RLucII (120 ng), Gβ1 (3000 ng), Gγ1-GFP10 (3000 ng), human AT1 (3000 ng) and Salmon sperm DNA (SSD) (880 ng). For the β-arrestin2 recruitment assay, HEK293 cells were transfected with the plasmids coding for 120 ng β-arrestin-2-RLucII, 3000 ng AT1, 3000 ng rGFP-CAAX, and 3880 ng SSD. For the measurement of PKC, HEK293 cells were transfected with 3000 ng AT1, 600 ng PKC-c1b, and 6400 ng SSD. […] 100 µL of the cell/DNA mixture was added to white 96-well plates and incubated at 37°C at 5% CO2 for 48 h. For the Rho assay, ΔG12/13 cells were seeded at a density of 9,000 cells per well in poly-ornithine-coated white 96-well plates and transfected the following day. In brief, 1 μg of total DNA in 100 μL of PBS was mixed with 100 μL of PBS containing 3 μL of 1 mg/mL PEI. For Rho signaling, 150 ng of AT1R DNA with 25 ng of PKN-RBD-RlucII [8], and 100 ng of rGFP-CAAX were used. Empty pcDNA was used to reach 1 µg of the total DNA amount in 100 μL of PBS. The DNA was then mixed with 100 μL of PBS containing 3 μL of 1 mg/mL PEI. After a 20-min incubation, the DNA/PEI complexes were dispensed into cells in 96-well plates (15 µL/well), and the experiment was carried out 48 h post-transfection.
On the day of the experiment, each well was washed with 80 µL of Tyrode’s buffer (140 mM NaCl, 2.7 mM KCl, 1 mM CaCl2, 12 mM NaHCO3, 5.6 mM D-glucose, 0.5 mM MgCl2, 0.37 mM NaH2PO4, 25 mM Hepes (pH 7.4)). This was followed by incubation for 1 h in Tyrode’s buffer at room temperature. […] Cells were then stimulated with increasing doses of the indicated ligand, and BRET signals were measured using a Tristar2 (Berthold) microplate reader 10 min later. […] BRET signals were then measured using a Synergy2 (BioTek) microplate reader. […]

AT1R [2] = target: T1, AT1R; test: Gαq activation BRET (GABY sensor) in HEK293 cells expressing AT1R; conditions: for Emax Gαq (% AngII): HEK293/AT1R, GABY BRET sensor, response of the ligand at 10 μM, normalised to AngII; for EC50: HEK293 cells transiently expressing human AT1R, Gαq-RlucII/Gβ1/Gγ1-GFP10 (GABY) BRET sensor, BRET read 10 min after ligand, mean ± SEM of at least three to five independent experiments
Text: as §1
(§2) On the day of the experiment, each well was washed with 80 µL of Tyrode’s buffer (140 mM NaCl, 2.7 mM KCl, 1 mM CaCl2, 12 mM NaHCO3, 5.6 mM D-glucose, 0.5 mM MgCl2, 0.37 mM NaH2PO4, 25 mM Hepes (pH 7.4)). This was followed by incubation for 1 h in Tyrode’s buffer at room temperature. For the Gαq, β-arrestin-2, and PKC biosensors used in HEK293 cells, coelenterazine 400A (at a final concentration of 5 μM) was added 10 min before stimulation. Cells were then stimulated with increasing doses of the indicated ligand, and BRET signals were measured using a Tristar2 (Berthold) microplate reader 10 min later. For the PKC and Rho biosensors in VSMCs, and the Rho biosensor in ΔG12/13 cells, cells were similarly stimulated with ligands for 1 min, 1 min 30 s, and 3 min, respectively, before BRET measurement. […] BRET signals were then measured using a Synergy2 (BioTek) microplate reader. The applied filter set was 410/80 nm and 515/30 nm, designed to detect the light emissions of RlucII (Renilla luciferase) (donor) and rGFP (acceptor), respectively.

AT1R [3] = target: T1, AT1R; test: β-arrestin2 recruitment BRET (β-arrestin2-RLucII/rGFP-CAAX) in HEK293 cells expressing AT1R; conditions: for Emax βarr2 (% AngII): HEK293/AT1R, β-arrestin2 BRET, response of the ligand at 10 μM, normalised to AngII; for EC50: HEK293 cells transiently expressing AT1R, β-arrestin2-RLucII/rGFP-CAAX BRET, read 10 min after ligand, mean ± SEM of at least three to five independent experiments, SEM, read-out: EC50 βarr2
Text: as §1, §2

Compound	Emax PKC (% AngII) (AT1R [1])	EC50 (AT1R [1])	Emax Gαq (% AngII) (AT1R [2])	EC50 (AT1R [2]; SEM)	Emax βarr2 (% AngII) (AT1R [3])	EC50 (AT1R [3])	EC50 (AT1R [2])
CC[C@H](C)[C@H](NC(=O)[C@H](Cc1ccc(O)cc1)NC(=O)[C@@H](NC(=O)[C@H](CCCNC(=N)N)NC(=O)[C@@H](N)CC(=O)O)C(C)C)C(=O)N[C@@H](Cc1c[nH]cn1)C(=O)N1CCC[C@H]1C(=O)N[C@@H](Cc1ccc(OC)cc1)C(=O)O [compound 11]	105 % AngII	0.66 ± 0.13 nM	113 % AngII	1.1 ± 0.4 nM	105 % AngII	0.36 ± 0.1 nM	
CC[C@H](C)[C@H](NC(=O)[C@H](Cc1ccc(O)cc1)NC(=O)[C@@H](NC(=O)[C@H](CCCNC(=N)N)NC(=O)[C@@H](N)CC(=O)O)C(C)C)C(=O)N[C@@H](Cc1c[nH]cn1)C(=O)N1CCC[C@H]1C(=O)N[C@@H](Cc1ccc(OCc2ccccc2)cc1)C(=O)O [compound 12]	51 % AngII	4.8 ± 3.4 nM	11 % AngII		89 % AngII	2.5 ± 0.4 nM	> 10000 nM
